Values quoted from earlier work as cited in patent publication US20190269662A1, “SOLID COMPOSITIONS OF ACTIVES, PROCESSES FOR PREPARING SAME AND USES OF SUCH SOLID COMPOSITIONS” (The University of Liverpool, priority 2018, published 2019).

Conditions: background statement; cited from earlier work

SMILES: Cc1nnc(C(C)C)n1[C@@H]1C[C@H]2CC[C@@H](C1)N2CC[C@H](NC(=O)C1CCC(F)(F)CC1)c1ccccc1 [maraviroc]
- oral bioavailability: approximately 33%
